Measured values: publication PMC4376724, “Differential Phenotypic and Functional Profiles of TcCA-2 -Specific Cytotoxic CD8^+ T Cells in the Asymptomatic versus Cardiac Phase in Chagasic Patients” (PLoS ONE, 2015)

Test system: PBMC from HLA-A*02:01 Chagas disease patients and healthy donors
Assay: Cytokine secretion test (Bio-Plex multiplex immunoassay) in PBMC supernatants
Assay type: cell-based, human
Conditions: 1 μM peptide, 30 h; for IFNγ / IL6 / TNFα: non-peptide control subtracted
Protocol: For the screening of the recognition of TcCA-2 epitopes by Chagas disease patients, 10 HLA-A*02:01 adult patients in the asymptomatic phase of the disease (IND) were enrolled. For cytotoxicity, functional activity determinations and phenotypic characterization another group of 19 HLA-A*02:01 adults Chagas disease patients and 9 healthy donors were analyzed. These patients were at the chronic stage of the disease and were considered to be at the asymptomatic phase (IND, n = 8) if there was no evidence of having cardiac or gastrointestinal disorders. Chronic Chagas cardiomyopathy patients (CCC, n = 11) were stratified into G1 to G3 stages following Kuschnir classification according to clinical criteria and radiological, electrocardiographic and echocardiography analyses. The number of patients was the one recommended by the Hospital Ethical Committee. […] The patients were enrolled in both studies (functional and phenotypic characterization, IND n = 6 and CCC n = 7) when the available number of purified PBMC (limited by the cellular number isolated from each subject) was enough for both analyses. Another four CCC patients had to be enrolled to perform the phenotypic analysis in order to reach statistical significance.
Cytokine secretion (IL-4, IL-10, IL-6, IFN-γ, TNF-α) was determined in the supernatants of PBMC from Chagas disease patients and healthy donors, after in vitro stimulation with 1 μM of each peptide for 30 h at 37°C in RPMI supplemented with 10% iFBS as explained before. The secretion profile was determined by using a bead-based multiplex immunoassay system (Bio-Plex, Bio-Rad), following the manufacturer's instructions. The response was considered positive if an increase in the secretion of cytokines was at least three folds higher than the secretion by un-stimulated cells (basal secretion level) and at least, 4 pg/mL for IL-4, 2 pg/mL for IL-10, 15 pg/mL for IL-6 and 5 pg/mL for IFN-γ and TNF-α. The positive control consisted of 50 ng/mL Phorbol 12 myristate 13-acetate (PMA) and 500 ng/mL ionomycin (Sigma). Cytokine levels were quantified in each sample by using the Bio-Plex Manager software 4.1 (Bio-Rad).
Functional analysis of the epitope-specific CD8^+ T cells was carried out by the determination of the secretion profile of IFN-γ, TNF-α, IL-4, IL10 and IL-6 cytokines. […] CD8^+ T cells from 2 out of 11 patients responded to stimulation with peptide TcCA-2_273-281 by secreting IL-6. […] There was no secretion of IL-4 and IL-10 in PBMC after stimulation with any one of the four TcCA-2 peptides (data not shown). IFN-γ, TNF-α and IL6 cytokines secretion levels were higher in patients at the asymptomatic phase of the disease than in Chagas patients with associated cardiomyopathy.

TVFDASRSTV [TcCA-2_442-451]
Patients whose cells recognized the peptide by secreting IFN-γ, TNF-α and IL-6 (PBMC of Chagas patients, positive = at least three folds non-peptide control and ≥15 pg/mL IL-6, ≥5 pg/mL IFN-γ and TNF-α): 2 out of 14 | Patients whose cells recognized the peptide by secreting TNF-α and IL-6 (PBMC of Chagas patients, same positivity criteria): 2 out of 14 | IFNγ (PBMC of patient CCC I 456): 4 pg/mL | IL6 (PBMC of patient CCC I 456): 46 pg/mL | TNFα (PBMC of patient CCC I 456): 6 pg/mL | IFNγ (PBMC of patient CCC I 770): -2 pg/mL | IL6 (PBMC of patient CCC I 770): 3 pg/mL | TNFα (PBMC of patient CCC I 770): -11 pg/mL | IFNγ (PBMC of patient CCC I 861): 0 pg/mL | IL6 (PBMC of patient CCC I 861): -4 pg/mL | TNFα (PBMC of patient CCC I 861): -3 pg/mL | IFNγ (PBMC of patient CCC I 884): 0 pg/mL | IL6 (PBMC of patient CCC I 884): 0 pg/mL | TNFα (PBMC of patient CCC I 884): 0 pg/mL | IFNγ (PBMC of patient CCC II 142): 2 pg/mL | IL6 (PBMC of patient CCC II 142): -3 pg/mL | TNFα (PBMC of patient CCC II 142): -20 pg/mL | IFNγ (PBMC of patient CCC III 509): 0 pg/mL | IL6 (PBMC of patient CCC III 509): -4 pg/mL | TNFα (PBMC of patient CCC III 509): -5 pg/mL | IFNγ (PBMC of patient CCC III 797): 3 pg/mL | IL6 (PBMC of patient CCC III 797): 31 pg/mL | TNFα (PBMC of patient CCC III 797): 7 pg/mL | IFNγ (PBMC of patient IND 265): 204 pg/mL | IL6 (PBMC of patient IND 265): 1641 pg/mL | TNFα (PBMC of patient IND 265): 160 pg/mL | IFNγ (PBMC of patient IND 283): 12 pg/mL | IL6 (PBMC of patient IND 283): 80 pg/mL | TNFα (PBMC of patient IND 283): 35 pg/mL | IFNγ (PBMC of patient IND 365): 0 pg/mL | IL6 (PBMC of patient IND 365): 7 pg/mL | TNFα (PBMC of patient IND 365): 15 pg/mL | IFNγ (PBMC of patient IND 388): 1 pg/mL | IL6 (PBMC of patient IND 388): 21 pg/mL | TNFα (PBMC of patient IND 388): -10 pg/mL | IFNγ (PBMC of patient IND 510): 0 pg/mL | IL6 (PBMC of patient IND 510): 1 pg/mL | TNFα (PBMC of patient IND 510): 1 pg/mL | IFNγ (PBMC of patient IND 535): 0 pg/mL | IL6 (PBMC of patient IND 535): -6 pg/mL | TNFα (PBMC of patient IND 535): -1 pg/mL | IFNγ (PBMC of patient IND 917): -1 pg/mL | IL6 (PBMC of patient IND 917): -13 pg/mL | TNFα (PBMC of patient IND 917): -4 pg/mL | IFNγ (PBMC of subject HD 001): 4 pg/mL | IL6 (PBMC of subject HD 001): 18 pg/mL | TNFα (PBMC of subject HD 001): -6 pg/mL | IFNγ (PBMC of subject HD 004): 0 pg/mL | IL6 (PBMC of subject HD 004): -15 pg/mL | TNFα (PBMC of subject HD 004): -1 pg/mL | IFNγ (PBMC of subject HD 005): 5 pg/mL | IL6 (PBMC of subject HD 005): 16 pg/mL | TNFα (PBMC of subject HD 005): -1 pg/mL | IFNγ (PBMC of subject HD 006): 2 pg/mL | IL6 (PBMC of subject HD 006): -2 pg/mL | TNFα (PBMC of subject HD 006): 2 pg/mL | IFNγ (PBMC of subject HD 008): 1 pg/mL | IL6 (PBMC of subject HD 008): 31 pg/mL | TNFα (PBMC of subject HD 008): 15 pg/mL | IFNγ (PBMC of subject HD 011): 8 pg/mL | IL6 (PBMC of subject HD 011): 54 pg/mL | TNFα (PBMC of subject HD 011): 10 pg/mL | IFNγ (PBMC of subject HD 340): 2 pg/mL | IL6 (PBMC of subject HD 340): 11 pg/mL | TNFα (PBMC of subject HD 340): 3 pg/mL | IFNγ (PBMC of subject HD 664): -3 pg/mL | IL6 (PBMC of subject HD 664): 0 pg/mL | TNFα (PBMC of subject HD 664): 0 pg/mL
